In US20030232862A1 (priority 2002, published 2003):
Like-named read-outs stand apart in the source and are kept apart here.

Key:
[1] = test system: HT-29 cells; assay: Growth inhibition of HT-29 cells (SRB assay; trypan blue counting in time course); type: cell-based, human; settings: for Growth Inhibition: Table 9 qualitative profile
[2] = target: cGMP PDE purified from human colon HT-29 cultured tumor cells (Homo sapiens, UniProt O76074); assay: cGMP PDE inhibition assay; type: biochemical; settings: for PDE Inhibition: Table 9 qualitative profile
[3] = test system: SW-480 colon adenocarcinoma cells; assay: Apoptosis fold induction protocol (DNA fragmentation, Table 4); settings: 100 μM; cell line not given
[4] = target: T1, cGMP binding sites of GST-cGB-PDE5 fusion protein (Homo sapiens, UniProt O76074); assay: cGMP binding assay with GST-cGB-PDE5 fusion protein; settings: for competition with cGMP binding at high concentration: 100 μM, cGMP 2 μM
T1 construct: made in house; host or cells: E. coli BL21 (DE3)

[5] = target: T2, PDE Peak A (PDE5) from SW480 cells (Homo sapiens, UniProt O76074); assay: cGMP hydrolysis by PDE Peak A (PDE5) isolated from SW480 cells; type: biochemical
T2 construct: To isolate the novel phosphodiesterase from SW480, approximately four hundred million SW480 cells were grown to confluence; endogenous in cells; host or cells: SW480 colon cancer cells; 105,000 g supernatant, DEAE-Trisacryl M fraction

[6] = test system: Peak B's (from SW480, HTB-26, and LnCAP); assay: FPLC-isolated Peak B PDE activity from three neoplastic cell lines; type: biochemical
Protocol: The novel Peak B was also isolated from two other neoplastic cell lines, a breast cancer cell line, HTB-26, and a prostate cancer cell line, LnCAP, by a procedure similar to the one above used to isolate it from SW480. The protocol was modified in several respects. To provide even greater reproducibility to allow comparison of different cell lines, a Pharmacia AKTA FPLC was used to control sample loading and elution on an 18 mL DEAE TrisAcryl M column. SW840 was run by this same procedure multiple times to provide a reference of Peak B. 200-400 million cells of SW480 were used for the profiles. 70 million cells of LnCAP were used for a profile (see FIGS. 22 and 23), and in a separate experiment 32 million cells of HTB-26 were used for a profile (see FIGS. 20 and 21). After re-suspending cells in homogenization buffer, samples were manually homogenized. FPLC buffer A was 8 mM TRIS-acetate, 5 mM Mg acetate, 0.1 mM EDTA, pH 7.5 and buffer B was 8 mM TRIS-acetate, 5 mM Mg acetate, 0.1 mM EDTA, 1 M Na acetate, pH 7.5. Supernatants were loaded onto the column at 1 mL per minute, followed by a wash with 60 mL buffer A at 1 mL per minute. A gradient was run from 0-15% buffer B in 60 mL, 15-50% buffer B in 60 mL, and 50-100% buffer B in 16 mL. During the gradient 1.5 mL fractions were collected.

[7] = target: T3, Cyclooxygenase (COX) (Ovis aries, UniProt P05979); assay: COX inhibition assay, single dose screen (Table 2); type: biochemical; settings: for COX Inhibition: Table 9 qualitative profile
T3 sequence (P05979 25-600): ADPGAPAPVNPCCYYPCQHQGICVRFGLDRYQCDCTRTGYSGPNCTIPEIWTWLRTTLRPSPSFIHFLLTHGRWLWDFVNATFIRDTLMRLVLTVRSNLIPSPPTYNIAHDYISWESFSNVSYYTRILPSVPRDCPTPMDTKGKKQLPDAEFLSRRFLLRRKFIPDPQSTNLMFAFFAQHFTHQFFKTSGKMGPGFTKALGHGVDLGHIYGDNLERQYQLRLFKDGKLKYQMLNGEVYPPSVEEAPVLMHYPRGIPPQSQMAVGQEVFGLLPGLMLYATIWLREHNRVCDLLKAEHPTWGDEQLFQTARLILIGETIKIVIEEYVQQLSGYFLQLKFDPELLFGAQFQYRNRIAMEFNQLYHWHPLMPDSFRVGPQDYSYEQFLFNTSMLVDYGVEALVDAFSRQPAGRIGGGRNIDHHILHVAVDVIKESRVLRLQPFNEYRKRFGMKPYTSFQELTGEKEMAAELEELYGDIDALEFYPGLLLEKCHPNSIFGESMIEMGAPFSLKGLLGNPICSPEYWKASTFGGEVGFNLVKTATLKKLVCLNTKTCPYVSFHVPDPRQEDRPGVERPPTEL

[8] = test system: HT-29 colon adenocarcinoma cells; assay: Apoptosis by DNA fragmentation assay in HT-29 cells; type: cell-based, human; settings: Table 9 qualitative profile; further: key: −: Not active; +: Slightly active; + +: Moderately active; + + +: Strongly active; + + + +: Highly active
[9] = test system: premalignant lesions in mouse mammary gland organ culture; assay: Mammary gland organ culture model; on mammary gland organ culture: key: −: Not active; +: Slightly active; + +: Moderately active; + + +: Strongly active; + + + +: Highly active; type: cell-based; settings: for inhibition of formation of premalignant lesions: FIG. 17
Source text: Test compounds identified by the above methods can be tested for antineoplastic activity by their ability to inhibit the incidence of pre-neoplastic lesions in a mammary gland organ culture system. This mouse mammary gland organ culture technique has been successfully used by other investigators to study the effects of known antineoplastic agents such as certain NSAIDs, retinoids, tamoxifen, selenium, and certain natural products, and is useful for validation of the screening method of the present invention.
For example, female BALB/c mice can be treated with a combination of estradiol and progesterone daily, in order to prime the glands to be responsive to hormones in vitro. The animals are sacrificed, and thoracic mammary glands are excised aseptically and incubated for ten days in growth media supplemented with insulin, prolactin, hydrocortisone, and aldosterone. DMBA (7,12-dimethylbenz(a)anthracene) is added to medium to induce the formation of premalignant lesions. Fully developed glands are then deprived of prolactin, hydrocortisone, and aldosterone, resulting in the regression of the glands but not the pre-malignant lesions.
The test compound is dissolved in DMSO and added to the culture media for the duration of the culture period. At the end of the culture period, the glands are fixed in 10% formalin, stained with alum carmine, and mounted on glass slides. The incidence of forming mammary lesions is the ratio of the glands with mammary lesions to […]. The incidence of mammary lesions in test compound treated glands is compared with that of the untreated glands.
The extent of the area occupied by the mammary lesions can be quantitated by projecting an image of the gland onto a digitation pad. The area covered by the gland is traced on the pad and considered as 100% of the area. The space covered by each of the non-regressed structures is also outlined on the digitization pad and quantitated by the computer.
Mammary gland organ culture experiment were performed as previously described (Mehta and Moon, Cancer Research, 46: 5832-5835, 1986).

Compound: rac-(E)-1-(butan-1′,4′-olido)-[3′,4′:1,2]-6-fluoro-2-methyl-3-(p-methylsulfonylbenzylidene)-1S-indanyl-glutathione)
- Growth Inhibition [1]: + +
- PDE Inhibition [2]: −

Compound: CCCCCC[C@@H]([C@@H](C)O)n1cnc2c(N)ncnc21 (racemic) [EHNA]
- Fold induction at 100 μM (apoptosis) [3]: <2.0 fold

Compound: CCCCOC1C2OP(=O)(O)OCC2OC1n1cnc2c(N)ncnc21 (centres unmarked) [2′-O-butyl-cAMP]
- competition with cGMP in binding of GST-cGB-PDE5 ([4]; 3H-cGMP 2 μM): did not compete

Compound: CC1=C(CC(=O)N(C2CCCCC2)C2CCCCC2)c2cc(F)ccc2/C1=C\c1ccc(S(C)(=O)=O)cc1 [F, (Z)-5-Fluoro-2-methyl-1-(p-methylsulfonylbenzylidene)-3-indenylacetamide, N,N′-dicyclohexyl]
- Growth Inhibition [1]: + +
- PDE Inhibition [2]: −

Compound: CCCc1nn(C)c2c(=O)[nH]c(-c3cc(S(=O)(=O)N4CCN(C)CC4)ccc3OCC)nc12 [Sildenafil, reference compound]
- inhibition of activity of Peak A [5]: inhibited activity of Peak A

Compound: COc1ccc(C2CNC(=O)C2)cc1OC1CCCC1 (centres unmarked) [Rolipram]
- inhibition of cAMP PDE activity in Peak B fractions [6]: inhibited most of the cAMP PDE activity

Compound: O=C([O-])C1CCN(c2nc(NCc3ccc4c(c3)OCO4)c3cc(Cl)ccc3n2)CC1.[Na+] [Example E4021, reference compound]
- % Inhibition at 100 μM (growth) [1]: <50%
- sensitivity of Peak B cGMP PDE activity ([6]; 100 nM, 0.25 μM cGMP): resistant

Compound: Nc1ncnc2c1ncn2[C@@H]1O[C@@H]2COP(=O)(O)O[C@H]2[C@H]1O [Cyclic AMP]
- competition with cGMP in binding of GST-cGB-PDE5 [4]: did not compete

Compound: CC1=C(CC(=O)O)c2cc(F)ccc2/C1=C\c1ccc(Cl)cc1 [Compound C, (Z)-5-Fluoro-2-methyl-1-(p-chlorobenzylidene)-3-acetic acid]
- % Inhibition at 100 μM (growth) [1]: 80%
- % Inhibition at 10 μM (cGMP PDE) [2]: <25%

Compound: CC(=O)NC(CSC12CC(=O)OC1(C)/C(=C/c1ccc(S(C)(=O)=O)cc1)c1ccc(F)cc12)C(=O)O (racemic) [D, rac-(E)-1-(butan-1′,4′-olido)-[3′,4′:1,2]-6-fluoro-2-methyl-3-(p-methylsulfonylbenzylidene)-1S-indanyl-N-acetylcysteine]
- % Inhibition at 100 μM (growth) [1]: 78%
- Growth Inhibition [1]: + +
- % Inhibition at 100 μM (cyclooxygenase) [7]: <25%

Compound: Clc1cccc(Nc2nnc(-c3ccccc3)c3ccccc23)c1 [MY5445, 1-(3-chloroanilino)-4-phenyphthalazine, reference compound]
- Growth Inhibition [1]: + + +
- Apoptosis [8]: + + +
- % Inhibition at 100 μM (cyclooxygenase) [7]: 94%
- COX Inhibition [7]: + + +

Compound: CCCCOC1C2OP(=O)(O)OCC2OC1n1cnc2c(=O)[nH]c(N)nc21 (centres unmarked) [2′-O-butyl-cGMP]
- competition with cGMP in binding of GST-cGB-PDE5 ([4]; 3H-cGMP 2 μM): did not compete

Compound: CC1=C(CC(=O)O)c2cc(F)ccc2/C1=C\c1ccc([S+](C)[O-])cc1 (centres unmarked) [sulindac, reference compound]
- inhibition of formation of premalignant lesions [9]: effectively inhibit

Compound: Nc1ccn([C@@H]2O[C@@H]3COP(=O)(O)O[C@H]3[C@H]2O)c(=O)n1 [cCMP]
- competition with cGMP in binding of GST-cGB-PDE5 ([4]; 3H-cGMP 2 μM): did not compete

Compound: ribo-(E)-1-Triazolo-[2′,3′:1″,3″]-1-(butan-1′,4′-olido)-[3′,4′:1,2]-6-fluoro-2-methyl-3-(p-methylsulfonylbenzylidene)-indan [G]
- Mammary Gland Organ Culture ([9]; Table 9 qualitative profile): + + +
- Growth Inhibition [1]: + +
- PDE Inhibition [2]: −
- Apoptosis [8]: + +

Compound: Nc1nc2c(nc(Br)n2[C@@H]2O[C@@H]3COP(=O)(O)O[C@H]3[C@H]2O)c(=O)[nH]1 [Example 8-bromo-cGMP]
- competition with cGMP binding at high concentration [4]: partially compete

Compound: 5-fluoro-2-methyl-1-(p-methylsulfinylbenzylidene)-3-indenylacetic acid [Sulindac sulfide, reference compound]
- inhibition of formation of premalignant lesions [9]: inactive
- % Inhibition at 10 μM (cGMP PDE) [2]: 97%
- PDE Inhibition [2]: + + +
- IC50 ([2]; read-out: IC50 for inhibition of cGMP PDE): 17 µM
- competitive (with cGMP) inhibition/binding, Peak A [5]: competitively inhibited
- Apoptosis [8]: + + +
- % Inhibition at 100 μM (cyclooxygenase) [7]: 97%
- COX Inhibition [7]: + + + +

Compound: O=c1[nH]cnc2c1ncn2[C@@H]1O[C@@H]2COP(=O)(O)O[C@H]2[C@H]1O [Cyclic IMP]
- competition with cGMP binding at high concentration [4]: partially compete

Compound: O=c1ccn([C@@H]2O[C@@H]3COP(=O)(O)O[C@H]3[C@H]2O)c(=O)[nH]1 [cUMP]
- competition with cGMP in binding of GST-cGB-PDE5 ([4]; 3H-cGMP 2 μM): did not compete
